Test [1] relates to procollagen peptide production by human epidermal fibroblasts. Put plainly: Increase of collagen stimulation (procollagen peptide ELISA). As to conditions: human adult epidermal fibroblasts, treated 3 days. Format: cell-based. The text has this: Increase of Collagen Stimulation: Collagen is an extracellular matrix protein critical for skin structure. Increased synthesis of collagen helps improve skin firmness and elasticity. This bioassay was used to examine the effect of tetrahexyldecyl ascorbate, and/or Phyllanthus emblica fruit extract on the production of procollagen peptide (a precursor to collagen) by human epidermal fibroblasts. The endpoint of this assay was a spectrophotometric measurement that reflects the presence of procollagen peptide and cellular viability. The assay employed the quantitative sandwich enzyme immunoassay technique whereby a monoclonal antibody specific for procollagen peptide had been pre-coated onto a microplate. Standards and samples were pipetted into the wells and any procollagen peptide present was bound by the immobilized antibody. […] Following a wash to remove any unbound antibody-enzyme reagent, a substrate solution was added to the wells and color develops in proportion to the amount of procollagen peptide bound in the initial step using a microplate reader for detection at 450 nm. The color development was stopped and the intensity of the color was measured. […] Following incubation, cell culture medium was collected and the amount of procollagen peptide secretion quantified using a sandwich enzyme linked immuno-sorbant assay (ELISA) from Takara (#MK101).

Test [2] addresses T1, MMP3 (Homo sapiens, UniProt P08254).
T1 construct: purchased BioMol International AK-400
Put plainly: Inhibition of matrix metalloproteinase enzyme activity (MMP3) assay. Type of test: biochemical. From the text: Inhibition of Matrix Metalloproteinase Enzyme Activity (MMP3) Assay: MMPs are extracellular proteases that play a role in many normal and disease states by virtue of their broad substrate specificity. MMP3 substrates include collagens, fibronectins, and laminin; while MMP9 substrates include collagen VII, fibronectins and laminin. Using Colorimetric Drug Discovery kits from BioMol International for MMP3 (AK-400) and MMP-9 (AK-410), this assay was designed to measure protease activity of MMPs using a thiopeptide as a chromogenic substrate (Ac-PLG-[2-mercapto-4-methyl-pentanoyl]-LG-OC2H5)5,6. The MMP cleavage site peptide bond was replaced by a thioester bond in the thiopeptide. Hydrolysis of this bond by an MMP produced a sulfhydryl group, which reacted with DTNB [5,5′-dithiobis(2-nitrobenzoic acid), Ellman's reagent] to form 2-nitro-5-thiobenzoic acid, which was detected by its absorbance at 412 nm (ε=13,600 M-1 cm-1 at pH 6.0 and above 7). Tetrahexyldecyl ascorbate was assayed.

Each structure is given as a SMILES string.

T1 sequence (P08254 100-272 limits assumed): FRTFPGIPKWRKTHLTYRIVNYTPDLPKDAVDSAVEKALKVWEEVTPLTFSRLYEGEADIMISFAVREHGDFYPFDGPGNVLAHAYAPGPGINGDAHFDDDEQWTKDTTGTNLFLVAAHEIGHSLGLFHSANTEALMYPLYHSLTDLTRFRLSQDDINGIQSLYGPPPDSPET

Turning to `CCCCCCCCC(CCCCCC)C(=O)OC[C@H](OC(=O)C(CCCCCC)CCCCCCCC)[C@H]1OC(=O)C(OC(=O)C(CCCCCC)CCCCCCCC)=C1OC(=O)C(CCCCCC)CCCCCCCC` (some centres unmarked) [Tetrahexyldecyl ascorbate], the Increase of collagen entry in test [1] was “+50%”. In addition, the “Inhibition of MMP3 activity” value in test [2] is recorded as −38%.
